From patent US20240238423A9, “TETRAHYDROISOQUINOLINE HETEROBIFUNCTIONAL BCL-XL DEGRADERS” (Treeline Biosciences, Inc., priority 2022, published 2024) come the findings set out here.

In the experiment the target is T1, Human BCL-XL protein (N-terminal HiBiT tagged BCL-XL in HT1080 cells) (Homo sapiens, UniProt Q07817).
T1 construct: expressed in transfected cells; host or cells: HT-1080 (ATCC CCL-121), stably transduced with lentivirus pLV-UBC-N-HiBiT-BCL-XL-PGK-puro and selected with puromycin
As to the kind of experiment: HiBiT based degradation assay. In kind it is cell-based. The settings on record: HT1080 cells expressing HiBiT-BCL-XL; for Ymin (24 h) / Ymin (6 h): BCL-XL degradation normalized with DMSO control; for DC50: BCL-XL degradation. The source says:
Human BCL-XL protein coding open reading frame fused with N-terminal HiBiT coding sequence was synthesized from Integrated DNA Technologies (IDT). Next, N-HiBiT-BCL-XL sequence was cloned into pLV-UBC-PGK-Puro, a lentivirus plasmid purchased from Vectorbuilder, to generate pLV-UBC-N-HiBiT-BCL-XL-PGK-puro. Lentiviral particles were generated from Lenti-X™ 293T cells (Clontech) by co-transfection of pLV-UBC-N-HiBiT-BCL-XL-PGK-puro plasmids and lentiviral packaging plasmid mix (Cellecta). HT-1080 [HT1080](ATCC CCL-121) cells were infected with the lentivirus, and HT1080 cells stably integrated with the lentiviral vectors were established by incubation with 1 μg/mL puromycin (Thermofisher).
HT1080 cells expressing N-terminal HiBiT tagged BCL-XL were dispensed into a 384-well plate pre-spotted with compounds at varying concentrations. Three thousand cells were seeded into each well in 40 μL of RPMI 1640 media. […] After incubation, luminescence was read on a PHERAstar FSX Plate Reader (BMG). BCL-XL degradation at each indicated concentration was normalized with the DMSO control. The BCL-XL degradation curves were plotted using a four-parameter logistic model. For compounds displaying hook effects, the curve fitting was performed using the bottom point of the hook curves (i.e., the point of Ymin) as the bottom plateau to calculate EC50.
(In general: The HiBiT peptide binds its large partner to form an active luciferase.)

Like-named read-outs stand apart in the source and are kept apart here.

T1 sequence (Q07817 whole entry): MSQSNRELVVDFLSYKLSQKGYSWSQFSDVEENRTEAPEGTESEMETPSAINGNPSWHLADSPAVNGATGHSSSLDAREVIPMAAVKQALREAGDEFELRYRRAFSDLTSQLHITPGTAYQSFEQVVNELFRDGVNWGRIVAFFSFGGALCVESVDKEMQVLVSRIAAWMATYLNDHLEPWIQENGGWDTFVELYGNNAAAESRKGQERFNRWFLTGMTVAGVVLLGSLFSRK

Regarding `Cc1c(O[C@H]2CC[C@H](CCC[C@@H](C)N3CCN(c4cccc5c(C6CCC(=O)NC6=O)nn(C)c45)CC3)CC2)cccc1-c1ccc(N2CCc3cccc(C(=O)Nc4nc5ccccc5s4)c3C2)nc1C(=O)O` (single isomer, unassigned) [Compound 349b], where the note is “24 h”, the “Ymin (24 h)” value is “A (Ymin < 50%)”. Further, for the setting “24 h, read-out: EC50 (24 h)”, the DC50 is less than 100 nM.

For `Cc1c(O[C@H]2CC[C@H](CCCCN3CCC[C@H](c4cccc5c(C6CCC(=O)NC6=O)nn(C)c45)C3)CC2)cccc1-c1ccc(N2CCc3cccc(C(=O)Nc4nc5ccccc5s4)c3C2)nc1C(=O)O` (single isomer, unassigned) [Compound 351a], the “Ymin (24 h)” value (24 h) is on record as “A (Ymin < 50%)”. In addition, the DC50 (24 h, read-out: EC50 (24 h)) is less than 100 nM.

`Cc1c(O[C@H]2CC[C@H](CCCCN3CCC[C@@H](c4cccc5c(C6CCC(=O)NC6=O)nn(C)c45)C3)CC2)cccc1-c1ccc(N2CCc3cccc(C(=O)Nc4nc5ccccc5s4)c3C2)nc1C(=O)O` (single isomer, unassigned) [Compound 351b]: for the setting “24 h”, the “Ymin (24 h)” value is reported as “A (Ymin < 50%)”. Also, under “24 h, read-out: EC50 (24 h)”, the DC50 is less than 100 nM.

On to `Cc1c(O[C@H]2CC[C@H](CCCCN3CCC[C@H](c4ccc5c(C6CCC(=O)NC6=O)nn(C)c5c4)C3)CC2)cccc1-c1ccc(N2CCc3cccc(C(=O)Nc4nc5ccccc5s4)c3C2)nc1C(=O)O` (single isomer, unassigned) [Compound 352a], for which the “Ymin (24 h)” value (24 h) is listed as “A (Ymin < 50%)”. Where the note is “24 h, read-out: EC50 (24 h)”, the DC50 was less than 100 nM.

As for `Cc1c(O[C@H]2CC[C@H](CCCCN3CCC[C@@H](c4ccc5c(C6CCC(=O)NC6=O)nn(C)c5c4)C3)CC2)cccc1-c1ccc(N2CCc3cccc(C(=O)Nc4nc5ccccc5s4)c3C2)nc1C(=O)O` (single isomer, unassigned) [Compound 352b], under “24 h”, the “Ymin (24 h)” value was “A (Ymin < 50%)”. Moreover, the DC50 (24 h, read-out: EC50 (24 h)) is less than 100 nM.

Regarding `Cc1cc(OC[C@@H](C)CC2CCN(CC(=O)Nc3ccc4c(C5CCC(=O)NC5=O)nn(C)c4c3)CC2)ccc1-c1ccc(N2CCc3cccc(C(=O)Nc4nc5ccccc5s4)c3C2)nc1C(=O)O` (stereo in doubt) [Compound 271b, 6-(8-(benzo[d]thiazol-2-ylcarbamoyl)-3,4-dihydroisoquinolin-2(1H)-yl)-3-(4-((2S)-3-(1-(2-((3-(2,6-dioxopiperidin-3-yl)-1-methyl-1H-indazol-6-yl)amino)-2-oxoethyl)piperidin-4-yl)-2-methylpropoxy)-2-methylphenyl)picolinic acid], the “Ymin (24 h)” value (24 h) was “C (Ymin ≥ 70%)”. For the same compound, the DC50 (24 h, read-out: EC50 (24 h)) is less than 100 nM.

`Cc1c(OCC[C@H]2CCC3(CCN(CC(=O)Nc4ccc5c(C6CCC(=O)NC6=O)nn(C)c5c4)CC3)C2)cccc1-c1ccc(N2CCc3cccc(C(=O)Nc4nc5ccccc5s4)c3C2)nc1C(=O)O` (stereo in doubt) [Compound 272a, 6-(8-(benzo[d]thiazol-2-ylcarbamoyl)-3,4-dihydroisoquinolin-2(1H)-yl)-3-(3-(2-((2S)-8-(2-((3-(2,6-dioxopiperidin-3-yl)-1-methyl-1H-indazol-6-yl)amino)-2-oxoethyl)-8-azaspiro[4.5]decan-2-yl)ethoxy)-2-methylphenyl)picolinic acid]: for the setting “24 h”, the “Ymin (24 h)” value is on record as “A (Ymin < 50%)”. For the same compound, the DC50 (24 h, read-out: EC50 (24 h)) was less than 100 nM.

On to `Cc1cc(O[C@H](C)CCC2CCN(CC(=O)Nc3ccc4c(C5CCC(=O)NC5=O)nn(C)c4c3)CC2)ccc1-c1ccc(N2CCc3cccc(C(=O)Nc4nc5ccccc5s4)c3C2)nc1C(=O)O` (stereo in doubt) [Compound 276a, 6-[8-(1,3-benzothiazol-2-ylcarbamoyl)-3,4-dihydro-1H-isoquinolin-2-yl]-3-[4-[(1R)-3-[1-[2-[[3-(2,6-dioxo-3-piperidyl)-1-methyl-indazol-6-yl]amino]-2-oxo-ethyl]-4-piperidyl]-1-methyl-propoxy]-2-methyl-phenyl]pyridine-2-carboxylic acid], for which, where the note is “24 h”, the “Ymin (24 h)” value was “A (Ymin < 50%)”. In addition, the DC50 (24 h, read-out: EC50 (24 h)) is less than 100 nM.

`Cc1cc(O[C@@H](C)CCC2CCN(CC(=O)Nc3ccc4c(C5CCC(=O)NC5=O)nn(C)c4c3)CC2)ccc1-c1ccc(N2CCc3cccc(C(=O)Nc4nc5ccccc5s4)c3C2)nc1C(=O)O` (stereo in doubt) [Compound 276b, 6-[8-(1,3-benzothiazol-2-ylcarbamoyl)-3,4-dihydro-1H-isoquinolin-2-yl]-3-[4-[(1S)-3-[1-[2-[[3-(2,6-dioxo-3-piperidyl)-1-methyl-indazol-6-yl]amino]-2-oxo-ethyl]-4-piperidyl]-1-methyl-propoxy]-2-methyl-phenyl]pyridine-2-carboxylic acid]: the “Ymin (24 h)” value (24 h) is “A (Ymin < 50%)”. The DC50 (24 h, read-out: EC50 (24 h)) is less than 100 nM.

With `Cc1c(OCC[C@H]2CC23CCN(CC(=O)Nc2ccc4c(C5CCC(=O)NC5=O)nn(C)c4c2)CC3)cccc1-c1ccc(N2CCc3cccc(C(=O)Nc4nc5ccccc5s4)c3C2)nc1C(=O)O` (stereo in doubt) [Compound 289b, 6-(8-(benzo[d]thiazol-2-ylcarbamoyl)-3,4-dihydroisoquinolin-2(1H)-yl)-3-(3-(2-((1R)-6-(2-((3-(2,6-dioxopiperidin-3-yl)-1-methyl-1H-indazol-6-yl)amino)-2-oxoethyl)-6-azaspiro[2.5]octan-1-yl)ethoxy)-2-methylphenyl)picolinic acid], under “24 h”, the “Ymin (24 h)” value was “A (Ymin < 50%)”. The DC50 (24 h, read-out: EC50 (24 h)) was less than 100 nM.

For `Cc1c(OCCC2CCN(CC(=O)Nc3cccc4c(C5CCC(=O)NC5=O)nn(C)c34)CC2)cccc1-c1ccc(N2CCc3cccc(C(=O)Nc4nc5ccccc5s4)c3C2)nc1C(=O)O` (centres unmarked) [Compound 101, 6-[8-(1,3-benzothiazol-2-ylcarbamoyl)-3,4-dihydro-1H-isoquinolin-2-yl]-3-[3-[2-[1-[2-[[3-(2,6-dioxo-3-piperidyl)-1-methyl-indazol-7-yl]amino]-2-oxo-ethyl]-4-piperidyl]ethoxy]-2-methyl-phenyl]pyridine-2-carboxylic acid], the “Ymin (6 h)” value (6 h) is “B (50% ≤ Ymin < 70%)”. The “Ymin (24 h)” value (24 h) is reported as “B (50% ≤ Ymin < 70%)”. For the same compound, the DC50 reads like this: (6 h, read-out: EC50 (6 h)) less than 100 nM; (24 h, read-out: EC50 (24 h)) less than 100 nM.

For `Cc1c(Oc2ccc(CCC(=O)Nc3ccc(C4CCC(=O)NC4=O)cc3)cc2)cccc1-c1ccc(N2CCc3cccc(C(=O)Nc4nc5ccccc5s4)c3C2)nc1C(=O)O` (centres unmarked) [Compound 102, 6-[8-(1,3-benzothiazol-2-ylcarbamoyl)-3,4-dihydro-1H-isoquinolin-2-yl]-3-[3-[4-[3-[4-(2,6-dioxo-3-piperidyl)anilino]-3-oxo-propyl]phenoxy]-2-methyl-phenyl]pyridine-2-carboxylic acid], the “Ymin (6 h)” value (6 h) is “B (50% ≤ Ymin < 70%)”. In addition, for the setting “6 h, read-out: EC50 (6 h)”, the DC50 is less than 100 nM.

`Cc1c(OCCN2CCN(CC(=O)Nc3ccc4c(C5CCC(=O)NC5=O)nn(C)c4c3)CC2)cccc1-c1ccc(N2CCc3cccc(C(=O)Nc4nc5ccccc5s4)c3C2)nc1C(=O)O` (centres unmarked) [Compound 103, 6-[8-(1,3-benzothiazol-2-ylcarbamoyl)-3,4-dihydro-1H-isoquinolin-2-yl]-3-[3-[2-[4-[2-[[3-(2,6-dioxo-3-piperidyl)-1-methyl-indazol-6-yl]amino]-2-oxo-ethyl]piperazin-1-yl]ethoxy]-2-methyl-phenyl]pyridine-2-carboxylic acid]: the “Ymin (6 h)” value (6 h) is “A (Ymin < 50%)”. For the setting “24 h”, the “Ymin (24 h)” value is “A (Ymin < 50%)”. Besides, the DC50 reads like this: (6 h, read-out: EC50 (6 h)) less than 100 nM; (24 h, read-out: EC50 (24 h)) less than 100 nM.

Take `Cc1c(OCCCN2CCN(CC(=O)Nc3ccc4c(C5CCC(=O)NC5=O)nn(C)c4c3)CC2)cccc1-c1ccc(N2CCc3cccc(C(=O)Nc4nc5ccccc5s4)c3C2)nc1C(=O)O` (centres unmarked) [Compound 104, 6-[8-(1,3-benzothiazol-2-ylcarbamoyl)-3,4-dihydro-1H-isoquinolin-2-yl]-3-[3-[3-[4-[2-[[3-(2,6-dioxo-3-piperidyl)-1-methyl-indazol-6-yl]amino]-2-oxo-ethyl]piperazin-1-yl]propoxy]-2-methyl-phenyl]pyridine-2-carboxylic acid]: the “Ymin (6 h)” value (6 h) is “B (50% ≤ Ymin < 70%)”. Moreover, the “Ymin (24 h)” value (24 h) is “A (Ymin < 50%)”. Also, the DC50 is, setting by setting: (6 h, read-out: EC50 (6 h)) less than 100 nM; (24 h, read-out: EC50 (24 h)) less than 100 nM.

As for `Cc1c(OCCCN2CCN(CC(=O)Nc3cccc4c(C5CCC(=O)NC5=O)nn(C)c34)CC2)cccc1-c1ccc(N2CCc3cccc(C(=O)Nc4nc5ccccc5s4)c3C2)nc1C(=O)O` (centres unmarked) [Compound 105, 6-[8-(1,3-benzothiazol-2-ylcarbamoyl)-3,4-dihydro-1H-isoquinolin-2-yl]-3-[3-[3-[4-[2-[[3-(2,6-dioxo-3-piperidyl)-1-methyl-indazol-7-yl]amino]-2-oxo-ethyl]piperazin-1-yl]propoxy]-2-methyl-phenyl]pyridine-2-carboxylic acid], for the setting “6 h”, the “Ymin (6 h)” value is “B (50% ≤ Ymin < 70%)”. For the same compound, under “24 h”, the “Ymin (24 h)” value is “B (50% ≤ Ymin < 70%)”. Besides, the DC50 by setting is: (6 h, read-out: EC50 (6 h)) less than 100 nM; (24 h, read-out: EC50 (24 h)) 100 to 1000 nM.
